# Laboratory results reported in patent publication US20120015925A1, “NOVEL BENZOTHIAZEPINE AND BENZOTHIEPINE COMPOUNDS” (ASAHI KASEI PHARMA CORPORATION, priority 2004, published 2012).
# Experiments:
# male beagle dogs = assay: Effect of combination with pravastatin on plasma total cholesterol levels in dogs; assay type: in vivo, dog
# Excerpt: The effect of the combination of the compounds described in Example with pravastatin (HMG-CoA reductase inhibitor) on plasma cholesterol levels in dogs was examined.
# To male beagle dogs (supplied from Kitayama Labes, body weight 9 to 13 kg), usual solid feedstuff (DS-A: Oriental Yeast Co., Ltd.) was given once daily at 13:00 to 14:00. The light was turned on from 7:00 to 19:00 as a light period, and the remaining was defined as a dark period. Water was given ad libitum. In the morning in the week prior to the administration, the blood was collected with heparin from forearm cephalic vein, and plasma was collected by centrifugation. The total cholesterol level of this plasma was measured using the commercially available cholesterol level measurement kit by the enzymatic method (Cholesterol-E Test Wako). The dogs were grouped so that the total cholesterol levels were almost equal. Sodium pravastatin (1 mg/kg, Sankyo) alone or 3 mg/kg of the compound described in each of Examples alone or the combination thereof was orally administered once daily just before feeding for 7 days. Pravastatin was dissolved in distilled water, and the compound described in Example was suspended in 0.5% methylcellulose solution for administration. On the day after the final administration, the blood was collected from the forearm cephalic vein under starving, to which plasma was obtained. The total cholesterol level therein was measured by the same way. As a result, the total cholesterol level in the plasma was reduced by 7 mg/dL (6%) by orally administering 1 mg/kg/day of pravastatin for 7 days. The total cholesterol level in the plasma was reduced by […] (3 to 8%) by orally administering 3 mg/kg/day of the compound described in each of Examples for 7 days. When pravastatin and the compound described in each of Examples were co-administered at this dosages, the total cholesterol in the plasma was reduced by 14 to 24 mg/dL (12 to 20%). The reduction rate of the total cholesterol level was larger in the co-administration with the compound described in Example than in the administration of pravastatin alone, and the augmented effect by the co-administration was observed.
# Caco-2 cells = assay: Facilitation effect on permeability of combined compound (pravastatin, atorvastatin) through Caco-2 cells
# Procedure: The permeability through Caco-2 cells was measured by the same way as in Test Example 15.
# It was examined whether the permeability coefficient of the combined compound was changed in the presence of the compound described in Examples or the compound in Comparative Examples.
# [1] = pravastatin 1 mg/kg alone, oral once daily for 7 days, vehicle 1
smiles,measurement,setting,value
"CC[C@H](C)C(=O)O[C@H]1C[C@H](O)C=C2C=C[C@H](C)[C@H](CC[C@@H](O)C[C@@H](O)CC(=O)O)[C@H]21 [pravastatin, reference compound]",plasma total cholesterol BEFORE TREATMENT,"male beagle dogs; pravastatin 1 mg/kg alone group, baseline, N=4, mean±standard error",114 ± 6 mg/dL
same,plasma total cholesterol AFTER TREATMENT,"male beagle dogs; pravastatin 1 mg/kg alone, oral once daily for 7 days, N=4, mean±standard error",106 ± 5 mg/dL
same,plasma total cholesterol BEFORE TREATMENT − AFTER TREATMENT,male beagle dogs; [1],7 mg/dL
same,reduction rate with respect to the data before administration (number in parenthesis),male beagle dogs; [1],6
same,total cholesterol level in the plasma reduced by,"male beagle dogs; pravastatin alone 1 mg/kg/day oral, 7 days",7 mg/dL
same,"total cholesterol level in the plasma, reduction rate","male beagle dogs; pravastatin alone 1 mg/kg/day oral, 7 days, with respect to before administration",6%
same,RATE OF INCREASE (%),Caco-2 cells; statin alone (reference = 100),100%
same,[…] (PERMEATION × 10^−6 cm/s),"Caco-2 cells; statin alone, 25 μM, 37° C., 2 hours",0.33 × 10^−6 cm/s
